Paper PMC12748989 (Nature Communications, 2025)

Columns and labels:
PBMC = conditions: 12.5 µM

Row | Molecule | Average (percentage cell inhibition), Dmastoparan MDA-MB231 12.5uM (MDA-MB-231 cells) [%] | Average (percentage cell inhibition), Mastoparan PBMC (PBMC) [%]
1 | CC[C@H](C)[C@H](NC(=O)[C@H](CCCCN)NC(=O)[C@H](CCCCN)NC(=O)[C@H](C)NC(=O)[C@H](CC(C)C)NC(=O)[C@H](C)NC(=O)[C@H](C)NC(=O)[C@H](CC(C)C)NC(=O)[C@H](C)NC(=O)[C@H](CCCCN)NC(=O)[C@H](CC(C)C)NC(=O)[C@H](CC(N)=O)NC(=O)[C@@H](N)CCC(N)=O)C(=O)N[C@@H](CC(C)C)C(N)=O [Q1] | 44.2177 | 13.6421
2 | CC[C@H](C)[C@H](N)C(=O)N[C@@H](CC(N)=O)C(=O)N[C@@H](CC(C)C)C(=O)N[C@@H](CCCCN)C(=O)N[C@H](C(=O)N[C@@H](CC(C)C)C(=O)N[C@@H](C)C(=O)N[C@@H](C)C(=O)N[C@@H](CC(C)C)C(=O)N[C@@H](C)C(=O)N[C@@H](CCCCN)C(=O)N[C@@H](CCCCN)C(=O)N[C@H](C(=O)N[C@@H](CC(C)C)C(N)=O)[C@@H](C)CC)[C@@H](C)O [T5] | 39.042 | 12.9165
3 | CC[C@H](C)[C@H](N)C(=O)N[C@@H](CC(N)=O)C(=O)N[C@@H](CC(C)C)C(=O)N[C@@H](CCCCN)C(=O)N[C@@H](C)C(=O)N[C@@H](CC(C)C)C(=O)N[C@@H](C)C(=O)N[C@@H](C)C(=O)N[C@@H](CC(C)C)C(=O)N[C@@H](C)C(=O)N[C@@H](CCCCN)C(=O)N[C@@H](CCCCN)C(=O)N[C@H](C(=O)N[C@H](C(N)=O)[C@@H](C)O)[C@@H](C)CC [T14] | 36.2451 | 6.663
4 | H-INLKALAALAKKLL-NH2 [L13] | 83.7429 | 38.8767
5 | CC[C@H](C)[C@H](N)C(=O)N[C@@H](CC(N)=O)C(=O)N[C@@H](CC(C)C)C(=O)N[C@@H](CCCCN)C(=O)N[C@@H](C)C(=O)N[C@@H](CC(C)C)C(=O)N[C@@H](C)C(=O)N[C@@H](C)C(=O)N[C@@H](Cc1ccc(O)cc1)C(=O)N[C@@H](C)C(=O)N[C@@H](CCCCN)C(=O)N[C@@H](CCCCN)C(=O)N[C@H](C(=O)N[C@@H](CC(C)C)C(N)=O)[C@@H](C)CC [Y9] | 27.288 | 11.8226
6 | CC[C@H](C)[C@H](N)C(=O)N[C@@H](CC(N)=O)C(=O)N[C@@H](CC(C)C)C(=O)N[C@@H](CCCCN)C(=O)N[C@@H](C)C(=O)N[C@@H](CC(C)C)C(=O)N[C@@H](C)C(=O)N[C@@H](C)C(=O)NCC(=O)N[C@@H](C)C(=O)N[C@@H](CCCCN)C(=O)N[C@@H](CCCCN)C(=O)N[C@H](C(=O)N[C@@H](CC(C)C)C(N)=O)[C@@H](C)CC [G9] | 11.2187 | 7.302
7 | CC[C@H](C)[C@H](N)C(=O)N[C@@H](CC(N)=O)C(=O)N[C@@H](CC(C)C)C(=O)N[C@@H](CCCCN)C(=O)N[C@@H](C)C(=O)N[C@@H](CC(C)C)C(=O)N[C@@H](C)C(=O)N1CCC[C@H]1C(=O)N[C@@H](CC(C)C)C(=O)N[C@@H](C)C(=O)N[C@@H](CCCCN)C(=O)N[C@@H](CCCCN)C(=O)N[C@H](C(=O)N[C@@H](CC(C)C)C(N)=O)[C@@H](C)CC [P8] | 8.428 | -8.536
8 | CC[C@H](C)[C@H](N)C(=O)N[C@@H](CC(N)=O)C(=O)N[C@@H](CC(C)C)C(=O)N[C@@H](CCCCN)C(=O)N[C@@H](Cc1ccc(O)cc1)C(=O)N[C@@H](CC(C)C)C(=O)N[C@@H](C)C(=O)N[C@@H](C)C(=O)N[C@@H](CC(C)C)C(=O)N[C@@H](C)C(=O)N[C@@H](CCCCN)C(=O)N[C@@H](CCCCN)C(=O)N[C@H](C(=O)N[C@@H](CC(C)C)C(N)=O)[C@@H](C)CC [Y5] | 43.7779 | 12.3024
9 | CC[C@H](C)[C@H](NC(=O)[C@H](CCCCN)NC(=O)[C@H](CCCCN)NC(=O)[C@H](C)NC(=O)[C@H](CC(C)C)NC(=O)[C@H](C)NC(=O)[C@H](C)NC(=O)[C@H](CC(C)C)NC(=O)[C@H](C)NC(=O)[C@H](CCCCN)NC(=O)[C@H](CC(C)C)NC(=O)[C@H](CC(N)=O)NC(=O)[C@@H](N)[C@@H](C)O)C(=O)N[C@@H](CC(C)C)C(N)=O [T1] | 37.2219 | 14.7113
10 | CC[C@H](C)[C@H](N)C(=O)N[C@@H](CC(N)=O)C(=O)N[C@@H](CC(C)C)C(=O)N[C@@H](CCCCN)C(=O)N[C@@H](C)C(=O)N[C@@H](CC(C)C)C(=O)N[C@@H](C)C(=O)N[C@H](C(=O)N[C@@H](CC(C)C)C(=O)N[C@@H](C)C(=O)N[C@@H](CCCCN)C(=O)N[C@@H](CCCCN)C(=O)N[C@H](C(=O)N[C@@H](CC(C)C)C(N)=O)[C@@H](C)CC)C(C)C [V8] | 43.0954 | 11.0844
11 | CC[C@H](C)[C@H](N)C(=O)N[C@@H](CC(N)=O)C(=O)N[C@@H](CC(C)C)C(=O)N[C@@H](CCCCN)C(=O)NCC(=O)N[C@@H](CC(C)C)C(=O)N[C@@H](C)C(=O)N[C@@H](C)C(=O)N[C@@H](CC(C)C)C(=O)N[C@@H](C)C(=O)N[C@@H](CCCCN)C(=O)N[C@@H](CCCCN)C(=O)N[C@H](C(=O)N[C@@H](CC(C)C)C(N)=O)[C@@H](C)CC [G5] | 39.6978 | 4.313
12 | CC[C@H](C)[C@H](N)C(=O)N[C@@H](CC(N)=O)C(=O)N[C@@H](CC(C)C)C(=O)N[C@@H](CCCCN)C(=O)N[C@@H](C)C(=O)N[C@@H](CC(C)C)C(=O)N[C@@H](C)C(=O)N[C@@H](C)C(=O)N[C@@H](CC(C)C)C(=O)N[C@@H](C)C(=O)N[C@@H](CCCCN)C(=O)N[C@@H](CCCCN)C(=O)N[C@H](C(=O)N[C@@H](Cc1c[nH]c2ccccc12)C(N)=O)[C@@H](C)CC [W14] | 56.1495 | 13.9862
13 | CC[C@H](C)[C@H](N)C(=O)N[C@@H](CC(N)=O)C(=O)N[C@@H](CC(C)C)C(=O)N[C@@H](CCCCN)C(=O)N[C@@H](C)C(=O)N[C@@H](CC(C)C)C(=O)N[C@@H](C)C(=O)N[C@@H](C)C(=O)N[C@@H](CC(C)C)C(=O)N[C@@H](C)C(=O)N[C@@H](CCCCN)C(=O)N[C@@H](Cc1c[nH]cn1)C(=O)N[C@H](C(=O)N[C@@H](CC(C)C)C(N)=O)[C@@H](C)CC [H12] | 31.16 | 0.5315
14 | CC[C@H](C)[C@H](N)C(=O)N[C@@H](CC(N)=O)C(=O)N[C@@H](CC(C)C)C(=O)N[C@@H](CCCCN)C(=O)N[C@@H](C)C(=O)N[C@@H](CC(C)C)C(=O)N[C@@H](C)C(=O)N[C@@H](C)C(=O)N[C@@H](CC(C)C)C(=O)N[C@@H](C)C(=O)N[C@@H](CCCCN)C(=O)N[C@@H](CCCCN)C(=O)N[C@H](C(=O)N[C@@H](CCCNC(=N)N)C(N)=O)[C@@H](C)CC [R14] | 9.085 | -1.726
15 | CC[C@H](C)[C@H](N)C(=O)N[C@@H](CC(N)=O)C(=O)N[C@@H](CC(C)C)C(=O)N[C@@H](CCCCN)C(=O)N[C@@H](C)C(=O)N[C@@H](CC(C)C)C(=O)N[C@@H](C)C(=O)N[C@@H](C)C(=O)N[C@@H](CC(C)C)C(=O)N[C@@H](C)C(=O)N[C@@H](CCCCN)C(=O)N[C@@H](CCCCN)C(=O)N[C@H](C(=O)N[C@@H](CC(N)=O)C(N)=O)[C@@H](C)CC [N14] | -1.851 | 9.15
16 | CC[C@H](C)[C@H](N)C(=O)N[C@@H](CC(N)=O)C(=O)N[C@H](C(=O)N[C@@H](CCCCN)C(=O)N[C@@H](C)C(=O)N[C@@H](CC(C)C)C(=O)N[C@@H](C)C(=O)N[C@@H](C)C(=O)N[C@@H](CC(C)C)C(=O)N[C@@H](C)C(=O)N[C@@H](CCCCN)C(=O)N[C@@H](CCCCN)C(=O)N[C@H](C(=O)N[C@@H](CC(C)C)C(N)=O)[C@@H](C)CC)[C@@H](C)CC [I3] | 30.5933 | 14.9456
17 | CC[C@H](C)[C@H](N)C(=O)N[C@@H](CC(N)=O)C(=O)N[C@@H](CC(C)C)C(=O)N[C@@H](CCCCN)C(=O)N[C@@H](C)C(=O)N[C@@H](CC(N)=O)C(=O)N[C@@H](C)C(=O)N[C@@H](C)C(=O)N[C@@H](CC(C)C)C(=O)N[C@@H](C)C(=O)N[C@@H](CCCCN)C(=O)N[C@@H](CCCCN)C(=O)N[C@H](C(=O)N[C@@H](CC(C)C)C(N)=O)[C@@H](C)CC [N6] | 7.402 | 6.768
18 | CC[C@H](C)[C@H](N)C(=O)N[C@@H](CC(N)=O)C(=O)N[C@@H](CC(C)C)C(=O)N[C@@H](CCCCN)C(=O)N[C@@H](C)C(=O)N[C@@H](CC(C)C)C(=O)N[C@@H](C)C(=O)N[C@@H](C)C(=O)N[C@@H](CC(C)C)C(=O)N[C@@H](CO)C(=O)N[C@@H](CCCCN)C(=O)N[C@@H](CCCCN)C(=O)N[C@H](C(=O)N[C@@H](CC(C)C)C(N)=O)[C@@H](C)CC [S10] | 30.5653 | 1.271
19 | CC[C@H](C)[C@H](N)C(=O)N[C@@H](CC(N)=O)C(=O)N[C@@H](CC(C)C)C(=O)N[C@@H](CCCCN)C(=O)N1CCC[C@H]1C(=O)N[C@@H](CC(C)C)C(=O)N[C@@H](C)C(=O)N[C@@H](C)C(=O)N[C@@H](CC(C)C)C(=O)N[C@@H](C)C(=O)N[C@@H](CCCCN)C(=O)N[C@@H](CCCCN)C(=O)N[C@H](C(=O)N[C@@H](CC(C)C)C(N)=O)[C@@H](C)CC [P5] | 25.1894 | 0.2776
20 | CC[C@H](C)[C@H](N)C(=O)N[C@@H](CC(N)=O)C(=O)N[C@@H](CC(C)C)C(=O)N[C@@H](CCCCN)C(=O)N[C@@H](C)C(=O)N[C@@H](CC(C)C)C(=O)N[C@@H](C)C(=O)N[C@@H](C)C(=O)N[C@@H](CC(C)C)C(=O)N[C@@H](C)C(=O)N[C@@H](CCCCN)C(=O)N[C@@H](CCCCN)C(=O)N[C@@H](CC(N)=O)C(=O)N[C@@H](CC(C)C)C(N)=O [N13] | 29.0846 | 7.072
